The values below come from patent US10828303B2, “Composition comprising combination of TRH analog with arundic acid, and pharmaceutically acceptable salt of arundic acid” (Brivention Pharmaceutical (Shanghai) Inc., priority 2016, dated 2020).

Entries after “also recorded” stand apart in the source; their conditions may differ. Read-outs that look alike come from different tables or passages of the source.

The subject of data set [1] is patients with Alzheimer's disease or patients with cerebrovascular dementia. The note with it: reported in literature; cited from earlier work.
A short description of data set [2]: Crystal polymorph screening by the heating method. The note with it: open vial, oven 60° C. or 80° C. It counts as physicochemical. On the procedure:
30 mg of the compound of Synthesis Example 12 was placed in an open vial, and incubated in an oven heated to 60° C. or 80° C. for 19 hours or for 91 hours. After completion of the incubation, XRPD analysis and polarizing microscope observation were performed. FIG. 26 and FIG. 27 show the results.

Data set [3] can be described thus: Approximate solubility by manual dilution and visual observation. Format: physicochemical. Conditions: 25° C.; for solubility: thermodynamic from solid, read-out: Solubility at 25° C. S. As to the method:
The approximate solubility of the calcium salt in different solvents at 25° C. was tested by manual dilutions in combination with visual observation.

The solubility is the dissolved amount per volume that the medium holds.

With `NC(=O)[C@@H]1CCCN1C(=O)[C@H](Cc1cnc[nH]1)NC(=O)[C@@H]1CCC(=O)N1` [TRH], the “Effect on arousal, mood, semantic memory in patients” value in data set [1] is reported as “improve the level of arousal, mood, semantic memory”.

`CCCCCC[C@@H](CCC)C(=O)[O][Ca][O]C(=O)[C@@H](CCC)CCCCCC` [Compound of Synthesis Example 12, calcium (R)-2-propyloctanoate (S)-2-propyloctanoate]: in data set [2] (19 hours), the “Changes in morphology or XRPD pattern on heating” value is listed as “no changes in morphology or XRPD pattern were observed”. In addition, the “Morphological changes on heating” value in data set [2] (91 hours) is reported as “no morphological changes of the compound were observed”. The solubility in data set [3] (2-propanol (printed 2-Promanol), organic solvent or mixture, 2-Promanol) was greater than 210 mg/mL; in data set [3] (organic solvent or mixture, Acetone) it was less than 1.7 mg/mL; in data set [3] (organic solvent or mixture, CAN), less than 1.5 mg/mL; in data set [3] (organic solvent or mixture, EA) it was greater than 199 mg/mL; in data set [3] (organic solvent or mixture, Ethanol), greater than 185 mg/mL; in data set [3] (organic solvent or mixture, MEK), 94.4 to 189 mg/mL. For the same compound, the solubility in data set [3] (organic solvent or mixture, MtBE) is greater than 215 mg/mL; in data set [3] (organic solvent or mixture, THF) it was greater than 198 mg/mL; in data set [3] (Water), less than 1 mg/mL. Further, the Solubility in words result in data set [3] (different solvents) is “poorly soluble in water; also recorded: dissolved in ethanol, 2-propanol, MtBE, EA, and THF”.
